According to US9555055B2, “Use of albiflorin and metabolites thereof” (priority 2010, dated 2017):
Where a name gives a salt, the structure may show the parent alone. Marks after values point to notes of the source that are not given here.

Columns and labels:
Format in all cases: in vivo
5-HT1A receptor = assay: mRNA expression of 5-HT1A receptor in hippocampus of chronic stress rats (RT-PCR); details: 2.5 mg/kg/d, 21 days
Procedure: After having free access to food and being deprived water for 24 h, 72 normal rats were administered with 1% sucrose aqueous solution, and measured the consumption within 1 h. According to the consumption of sucrose aqueous solution, the rats were randomly divided into six groups, 12 […] per group, i.e. normal control group, model group, positive drug Prozac group (2.5 mg/kg/d), high-dose group (70 mg/kg/d, comprising 11.2 mg of albiflorin), medium-dose group (35 mg/kg/d, comprising 5.6 mg of albiflorin), and low-dose group (17.5 mg/kg/d, comprising 2.8 mg of albiflorin) of Paeonia lactiflora Pall extract. When being modeled, the rats were simultaneously administered with drugs, once a day, for consecutive 21 days. […]
According to the instruction of TRIzol reagent, the total RNAs were extracted by one-step guanidine-isothiocyanate method. The integrity of the extracted total RNAs was confirmed by 0.9% agarose gel electrophoresis, and the content and purity of RNA were determined by UV spectrophotometer. […]
30 μl of 5-HT1A-R-amplified product and 10 μl of Actin-amplified product were mixed, and then subjected to 1.5% agarose gel electrophoresis. […] The ratio of IOD5-HTR/IODActin was the relative quantification of the amplified products, and the intergroup comparisons were carried out.

ICR mice [1] = assay: Spontaneous actions in mice; details: 14 days after administration
Procedure: (§1) 140 ICR mice (15-17 g, male, purchased from Institute of Laboratory Animal Sciences, CAMS & PUMC) were randomly divided into 10 groups (14 mice per group) as follows: paeoniflorin group at a dose of 100 mg/kg, paeoniflorin group at a dose of 50 mg/kg, paeoniflorin group at a dose of 25 mg/kg, paeoniflorin group at a dose of 12.5 mg/kg, albiflorin group at a dose of 28 mg/kg, albiflorin group at a dose of 14 mg/kg, albiflorin group at a dose of 7 mg/kg, normal saline control group, high-dose group of doxepin as a positive drug (25 mg/kg), and low-dose group of doxepin as a positive drug (1 mg/kg).

ICR mice [2] = assay: Sleeping-inducing test of pentobarbital sodium at the subthreshold dose; details: 14 days, pentobarbital sodium 35 mg/kg ip
Procedure: as §1
(§2) If the mice were kept in a supine position for more than 1 min, it would be considered that the righting reflex was disappeared in mice. After spontaneously rolling over, the mice were immediately placed in a supine position. If the mice could roll over within 1 min, it would be considered that the righting reflex was recovered. The time of the righting reflex being disappeared and recovered in mice were recorded. The period from the mice being intraperitoneally injected with pentobarbital sodium until the righting reflex being disappeared in mice was recorded as sleep latency. The period from the righting reflex being disappeared in mice until the righting reflex being recovered in mice was recorded as sleep duration. The sleep duration of more than 5 min in mice was considered as being asleep.
(§3) The mice were administered with drugs for consecutive 14 days. 1 h after the last administration, the mice were intraperitoneally injected with the subthreshold dose of pentobarbital sodium (35 mg/kg, 0.1 ml/10 g). The righting reflex being disappeared and recovered in mice were observed, and the time of the righting reflex being disappeared and recovered in mice were recorded. The evaluation criteria of sleep latency, sleep duration and sleep rate were the same as those in Section 7.2.1.

ICR mice [3] = assay: Sleep-prolonging test of pentobarbital sodium at the suprathreshold dose; details: 10 days, pentobarbital sodium 51 mg/kg ip
Procedure: as §2
as §3, with “10” for “14”, “suprathreshold” for “subthreshold”, “(51” for “(35”

KM mice = assay: Light-dark box test in mice (anti-anxiety test); details: 2.5 mg/kg/d gavage, 7 days, test 1 h after administration on Day 8
Procedure: Mice were randomly divided into 5 groups, i.e. high-dose group (14 mg/kg/d), medium-dose group (7 mg/kg/d), low-dose group (3.5 mg/kg/d) of Albiflorin, diazepam group (2.5 mg/kg/d), NS group. Gavage administration was performed once a day, for consecutive 7 days. During the administration, animals had free access to feed and water. The test was carried out 1 hour after the administration on Day 8.
Within the light-dark box (44 cm×21 cm×21 cm), the dark box accounts for one third thereof, with a cover on the top; while the light box accounts for two thirds thereof, providing illumination brightness; and there is a hole between the two boxes for animal to pass through. In the test, mice were placed in the center of the light box, back to the dark box, and then observed. The times of entering into the dark box followed by returning to the light box in mice were counted, as an index for the assession of anti-anxiety effect of a drug.

ICR mice [4] = assay: Sleeping-inducing test of pentobarbital sodium at the subthreshold dose; details: 2 mg/kg, 14 days; pentobarbital sodium 35 mg/kg ip

CNCCC(Oc1ccc(C(F)(F)F)cc1)c1ccccc1 (centres unmarked) [Positive Drug, fluoxetine hydrochloride]
mRNA expression of 5-HT1A receptor (ratio IOD5-HTR/IODActin) (5-HT1A receptor): 0.63 ± 0.21

CN(C)CCC=C1c2ccccc2COc2ccccc21.Cl [Doxepin, Doxepin Hydrochloride]
Times of Spontaneous Action (ICR mice [1]; 1 mg/kg): 420.50 ± 110.28 | Number of Sleeping Mice/Group (ICR mice [2]; 1 mg/kg): 1 | Sleep Rate (ICR mice [2]; 1 mg/kg): 1/12 | Sleep Duration (ICR mice [3]; 1 mg/kg): 74.91 ± 16.55 min | Sleep Latency (ICR mice [3]; 1 mg/kg): 4.38 ± 1.60 min | Sleep Duration (ICR mice [3]; 25 mg/kg): 63.60 ± 12.09 min | Sleep Latency (ICR mice [3]; 25 mg/kg): 4.72 ± 2.40 min

CN1C(=O)CN=C(c2ccccc2)c2cc(Cl)ccc21 [Diazepam]
Times of Spontaneous Action (ICR mice [1]; 2 mg/kg): 301.85 ± 103.11 | Times of Returning from Dark Box back to Light Box (KM mice): 13.6 ± 3.35 | Number of Sleeping Mice/Group (ICR mice [4]): 12 | Sleep Rate (ICR mice [4]): 12/13*

C[C@@]12C[C@@]3(O)O[C@@H](O1)[C@]1(COC(=O)c4ccccc4)[C@H]3C[C@@]12O[C@@H]1O[C@H](CO)[C@@H](O)[C@H](O)[C@H]1O [Paeoniflorin, paeoniflorin]
Times of Spontaneous Action (ICR mice [1]; 12.5 mg/kg): 456.71 ± 93.95 | Times of Spontaneous Action (ICR mice [1]; 25 mg/kg): 468.71 ± 73.56 | Times of Spontaneous Action (ICR mice [1]; 50 mg/kg): 503.00 ± 137.04 | Times of Spontaneous Action (ICR mice [1]; 100 mg/kg): 434.45 ± 76.43 | Number of Sleeping Mice/Group (ICR mice [2]; 12.5 mg/kg): 2 | Sleep Rate (ICR mice [2]; 12.5 mg/kg): 2/13 | Number of Sleeping Mice/Group (ICR mice [2]; 25 mg/kg): 4 | Sleep Rate (ICR mice [2]; 25 mg/kg): 1/3 | Number of Sleeping Mice/Group (ICR mice [2]; 50 mg/kg): 5 | Sleep Rate (ICR mice [2]; 50 mg/kg): 5/12 | Number of Sleeping Mice/Group (ICR mice [2]; 100 mg/kg): 3 | Sleep Rate (ICR mice [2]; 100 mg/kg): 3/11 | Sleep Duration (ICR mice [3]; 12.5 mg/kg): 74.57 ± 13.02 min | Sleep Latency (ICR mice [3]; 12.5 mg/kg): 4.11 ± 1.52 min | Sleep Duration (ICR mice [3]; 25 mg/kg): 68.64 ± 19.23 min | Sleep Latency (ICR mice [3]; 25 mg/kg): 4.96 ± 2.18 min | Sleep Duration (ICR mice [3]; 50 mg/kg): 73.70 ± 27.88 min | Sleep Latency (ICR mice [3]; 50 mg/kg): 5.17 ± 1.37 min | Sleep Duration (ICR mice [3]; 100 mg/kg): 72.98 ± 20.83 min | Sleep Latency (ICR mice [3]; 100 mg/kg): 28.10 ± 44.63 min
